In ChEMBL document CHEMBL5150056, “Synthesis and antibiofilm evaluation of N-acyl-2-aminopyrimidine derivatives against Acinetobacter baumannii” (Bioorg Med Chem, 2022):
In brackets after ≈: the same amount, converted by molar mass. Activity calls are given as the source filed them. The calls are words filed in the database; no cut-off is given here.

Test system: Staphylococcus aureus
Experiment: Antibiofilm activity against Staphylococcus aureus ATCC […] assessed as inhibition of biofilm formation incubated for 18 to 24 hrs by crystal violet staining based assay
Format: functional, organism-based
Settings: not given

Structure (SMILES)	IC50
CCCCCCCCCCCCCC(=O)Nc1nc(Cl)cc(N2CCNCC2)n1	11.2 µM

Test system: Acinetobacter baumannii
Experiment: Synergistic antibacterial activity against Acinetobacter baumannii assessed as planktonic growth inhibition incubated for 18 to 24 hrs in the presence of chloramphenicol by CLSI protocol based checkerboard assay
Format: functional
Settings: time 18-24 hrs

Structure (SMILES)	MIC
CCCCCCCCCCCCCC(=O)Nc1nc(N)cc(Cl)n1	64 µg/mL
CCCCCCCCCCCCCC(=O)Nc1nc(Cl)cc(N2CCNCC2)n1	64 µg/mL

Test system: Acinetobacter baumannii
Experiment: Antibiofilm activity against Acinetobacter baumannii assessed as reduction in biofilm thickness at 100 uM incubated for 24 hrs by Alexa fluor 488 staining based confocal laser microscopic analysis (reference value: 25.91)
Format: functional
Settings: not given

Structure (SMILES)	Activity
CCCCCCCCCCCCCC(=O)Nc1nc(N)cc(Cl)n1	16.04
CCCCCCCCCCCCCC(=O)Nc1nc(Cl)cc(N2CCNCC2)n1	14.68

Test system: Acinetobacter baumannii
Experiment: Antibacterial activity against Acinetobacter baumannii assessed as planktonic growth inhibition incubated for 18 to 24 hrs by CLSI protocol based assay
Format: functional
Settings: time 18-24 hrs

Structure (SMILES)	MIC
CCCCCCCCCCCCCC(=O)Nc1nc(N)cc(Cl)n1	256 µg/mL (≈ 721 µM)
CCCCCCCCCCCCCC(=O)Nc1nc(Cl)cc(N2CCNCC2)n1	256 µg/mL (≈ 604 µM)

Test system: Acinetobacter baumannii
Experiment: Antibiofilm activity against Acinetobacter baumannii ATCC19606 assessed as inhibition of biofilm formation incubated for 18 to 24 hrs by crystal violet staining based assay
Format: functional, organism-based
Settings: not given

Structure (SMILES)	IC50
CCCCCCCCCCCCCC(=O)Nc1nc(N)cc(Cl)n1	6.34 µM
CCCCCCCCCCCCCC(=O)Nc1nc(Cl)cc(N2CCNCC2)n1	4.43 µM

Test system: Staphylococcus epidermidis
Experiment: Antibiofilm activity against Staphylococcus epidermis ATCC 102555 assessed as inhibition rate of biofilm formation at 200 uM incubated for 18 to 24 hrs by crystal violet staining based assay relative to control
Format: functional
Settings: time 18-24 hrs

Structure (SMILES)	inhibition at 200 µM
CCCCCCCCCCCCCC(=O)Nc1nc(N)cc(Cl)n1	< 50%

Test system: Acinetobacter baumannii
Experiment: Synergistic antibacterial activity against Acinetobacter baumannii assessed as planktonic growth inhibition incubated for 18 to 24 hrs in the presence of gentamycin sulphate by CLSI protocol based checkerboard assay
Format: functional
Settings: time 18-24 hrs

Structure (SMILES)	MIC
CCCCCCCCCCCCCC(=O)Nc1nc(N)cc(Cl)n1	0.125 µg/mL
CCCCCCCCCCCCCC(=O)Nc1nc(Cl)cc(N2CCNCC2)n1	0.125 µg/mL

Test system: Acinetobacter baumannii
Experiment: Antibiofilm activity against Acinetobacter baumannii assessed as reduction in extracellular polysaccharides at 100 uM incubated for 1 hrs by ELISA analysis
Format: functional
Parameters: scale not given: the % may be the effect or the level left
Settings: not given

Structure (SMILES)	Activity
CCCCCCCCCCCCCC(=O)Nc1nc(N)cc(Cl)n1	65%
CCCCCCCCCCCCCC(=O)Nc1nc(Cl)cc(N2CCNCC2)n1	72%

Test system: Acinetobacter baumannii
Experiment: Synergistic antibacterial activity against Acinetobacter baumannii assessed as fractional inhibitory concentration index incubated for 18 to 24 hrs in the presence of gentamycin sulphate by CLSI protocol based checkerboard assay
Format: functional
Settings: time 18-24 hrs

Structure (SMILES)	fractional inhibitory concentration index (FICI)
CCCCCCCCCCCCCC(=O)Nc1nc(N)cc(Cl)n1	0.25
CCCCCCCCCCCCCC(=O)Nc1nc(Cl)cc(N2CCNCC2)n1	0.13

Test system: Acinetobacter baumannii
Experiment: Antibiofilm activity against Acinetobacter baumannii S1 assessed as inhibition of biofilm formation incubated for 18 to 24 hrs by crystal violet staining based assay
Format: functional, organism-based
Settings: not given

Structure (SMILES)	IC50
CCCCCCCCCCCCCC(=O)Nc1nc(N)cc(Cl)n1	39.3 µM
CCCCCCCCCCCCCC(=O)Nc1nc(Cl)cc(N2CCNCC2)n1	16.5 µM

Test system: 3T3-L1
Experiment: Cytotoxicity against mouse 3T3-L1 cells assessed as reduction in cell viability at 100 uM incubated for 24 hrs by MTT assay relative to control
Format: toxicity, cell-based
Settings: 3t3-l1, 24 h

Structure (SMILES)	Activity
CCCCCCCCCCCCCC(=O)Nc1nc(N)cc(Cl)n1	100.68%
CCCCCCCCCCCCCC(=O)Nc1nc(Cl)cc(N2CCNCC2)n1	21.11%

Test system: Escherichia coli
Experiment: Antibiofilm activity against Escherichia coli Dh5alpha assessed as inhibition rate of biofilm formation at 200 uM incubated for 18 to 24 hrs by crystal violet staining based assay relative to control
Format: functional
Settings: DH5-alpha, time 18-24 hrs

Structure (SMILES)	inhibition at 200 µM
CCCCCCCCCCCCCC(=O)Nc1nc(N)cc(Cl)n1	< 50%

Test system: Acinetobacter baumannii
Experiment: Antibiofilm activity against Acinetobacter baumannii 1925052 assessed as inhibition of biofilm formation incubated for 18 to 24 hrs by crystal violet staining based assay
Format: functional, organism-based
Settings: not given

Structure (SMILES)	IC50
CCCCCCCCCCCCCC(=O)Nc1nc(N)cc(Cl)n1	68.1 µM
CCCCCCCCCCCCCC(=O)Nc1nc(Cl)cc(N2CCNCC2)n1	3.98 µM

Test system: Staphylococcus epidermidis
Experiment: Antibiofilm activity against Staphylococcus epidermis ATCC 102555 assessed as inhibition of biofilm formation incubated for 18 to 24 hrs by crystal violet staining based assay
Format: functional, organism-based
Settings: not given

Structure (SMILES)	IC50
CCCCCCCCCCCCCC(=O)Nc1nc(Cl)cc(N2CCNCC2)n1	6.76 µM

Test system: Pseudomonas aeruginosa
Experiment: Antibiofilm activity against Pseudomonas aeruginosa ATCC 27853 assessed as inhibition of biofilm formation incubated for 18 to 24 hrs by crystal violet staining based assay
Format: functional, organism-based
Settings: not given

Structure (SMILES)	IC50
CCCCCCCCCCCCCC(=O)Nc1nc(Cl)cc(N2CCNCC2)n1	9.98 µM

Test system: Escherichia coli
Experiment: Antibiofilm activity against Escherichia coli Dh5alpha assessed as inhibition of biofilm formation incubated for 18 to 24 hrs by crystal violet staining based assay
Format: functional, organism-based
Settings: DH5-alpha

Structure (SMILES)	IC50
CCCCCCCCCCCCCC(=O)Nc1nc(Cl)cc(N2CCNCC2)n1	3.68 µM

Test system: 3T3-L1
Experiment: Cytotoxicity against mouse 3T3-L1 cells assessed as reduction in cell viability at 12.5 uM incubated for 24 hrs by MTT assay relative to control
Format: toxicity, cell-based
Settings: 3t3-l1, 24 h

Structure (SMILES)	Activity
CCCCCCCCCCCCCC(=O)Nc1nc(N)cc(Cl)n1	99.88%
CCCCCCCCCCCCCC(=O)Nc1nc(Cl)cc(N2CCNCC2)n1	99.3%

Test system: Acinetobacter baumannii
Experiment: Synergistic antibacterial activity against Acinetobacter baumannii assessed as fractional inhibitory concentration index incubated for 18 to 24 hrs in the presence of chloramphenicol by CLSI protocol based checkerboard assay
Format: functional
Settings: time 18-24 hrs

Structure (SMILES)	fractional inhibitory concentration index (FICI)
CCCCCCCCCCCCCC(=O)Nc1nc(N)cc(Cl)n1	0.25
CCCCCCCCCCCCCC(=O)Nc1nc(Cl)cc(N2CCNCC2)n1	0.25

Test system: Acinetobacter baumannii
Experiment: Antibiofilm activity against Acinetobacter baumannii assessed as reduction in biofilm brightness at 100 uM incubated for 24 hrs by Alexa fluor 488 staining based confocal laser microscopic analysis
Format: functional, organism-based
Settings: not given

Structure (SMILES)	Activity
CCCCCCCCCCCCCC(=O)Nc1nc(Cl)cc(N2CCNCC2)n1	Active

Test system: Acinetobacter baumannii
Experiment: Synergistic antibacterial activity against Acinetobacter baumannii assessed as fractional inhibitory concentration index incubated for 18 to 24 hrs in the presence of oxacillin by CLSI protocol based checkerboard assay
Format: functional
Settings: time 18-24 hrs

Structure (SMILES)	fractional inhibitory concentration index (FICI)
CCCCCCCCCCCCCC(=O)Nc1nc(N)cc(Cl)n1	0.25
CCCCCCCCCCCCCC(=O)Nc1nc(Cl)cc(N2CCNCC2)n1	0.25

Test system: 3T3-L1
Experiment: Cytotoxicity against mouse 3T3-L1 cells assessed as reduction in cell viability at 50 uM incubated for 24 hrs by MTT assay relative to control
Format: toxicity, cell-based
Settings: 3t3-l1, 24 h

Structure (SMILES)	Activity
CCCCCCCCCCCCCC(=O)Nc1nc(N)cc(Cl)n1	100.81%
CCCCCCCCCCCCCC(=O)Nc1nc(Cl)cc(N2CCNCC2)n1	80.61%

Test system: Acinetobacter baumannii
Experiment: Antibiofilm activity against Acinetobacter baumannii 1780608 assessed as inhibition of biofilm formation incubated for 18 to 24 hrs by crystal violet staining based assay
Format: functional, organism-based
Settings: not given

Structure (SMILES)	IC50
CCCCCCCCCCCCCC(=O)Nc1nc(N)cc(Cl)n1	43.3 µM
CCCCCCCCCCCCCC(=O)Nc1nc(Cl)cc(N2CCNCC2)n1	5.92 µM

Test system: Pseudomonas aeruginosa
Experiment: Antibiofilm activity against Pseudomonas aeruginosa ATCC 27853 assessed as inhibition rate of biofilm formation at 200 uM incubated for 18 to 24 hrs by crystal violet staining based assay relative to control
Format: functional
Settings: time 18-24 hrs

Structure (SMILES)	inhibition at 200 µM
CCCCCCCCCCCCCC(=O)Nc1nc(N)cc(Cl)n1	< 50%

Test system: Staphylococcus aureus
Experiment: Antibiofilm activity against Staphylococcus aureus ATCC […] assessed as inhibition rate of biofilm formation at 200 uM incubated for 18 to 24 hrs by crystal violet staining based assay relative to control
Format: functional
Settings: time 18-24 hrs

Structure (SMILES)	inhibition at 200 µM
CCCCCCCCCCCCCC(=O)Nc1nc(N)cc(Cl)n1	< 50%

Test system: not listed separately
Experiment: Cytotoxicity against mouse 3T3-L1 cells assessed as inhibition of cell growth incubated for 24 hrs by MTT assay
Format: toxicity, cell-based
Settings: not given

Structure (SMILES)	IC50 at 24 h
CCCCCCCCCCCCCC(=O)Nc1nc(Cl)cc(N2CCNCC2)n1	73.6 µM

Test system: 3T3-L1
Experiment: Cytotoxicity against mouse 3T3-L1 cells assessed as reduction in cell viability at 25 uM incubated for 24 hrs by MTT assay relative to control
Format: toxicity, cell-based
Settings: 3t3-l1, 24 h

Structure (SMILES)	Activity
CCCCCCCCCCCCCC(=O)Nc1nc(N)cc(Cl)n1	100.89%
CCCCCCCCCCCCCC(=O)Nc1nc(Cl)cc(N2CCNCC2)n1	99.3%

Test system: Acinetobacter baumannii
Experiment: Antibacterial activity against Acinetobacter baumannii S1 assessed as planktonic growth inhibition incubated for 18 to 24 hrs by CLSI protocol based assay
Format: functional
Settings: time 18-24 hrs

Structure (SMILES)	MIC
CCCCCCCCCCCCCC(=O)Nc1nc(N)cc(Cl)n1	> 256 µg/mL
CCCCCCCCCCCCCC(=O)Nc1nc(Cl)cc(N2CCNCC2)n1	> 256 µg/mL

Test system: Acinetobacter baumannii
Experiment: Antibiofilm activity against Acinetobacter baumannii 1778027 assessed as inhibition of biofilm formation incubated for 18 to 24 hrs by crystal violet staining based assay
Format: functional, organism-based
Settings: not given

Structure (SMILES)	IC50
CCCCCCCCCCCCCC(=O)Nc1nc(N)cc(Cl)n1	11.4 µM
CCCCCCCCCCCCCC(=O)Nc1nc(Cl)cc(N2CCNCC2)n1	47.5 µM

Test system: 3T3-L1
Experiment: Cytotoxicity against mouse 3T3-L1 cells assessed as reduction in cell viability at 200 uM incubated for 24 hrs by MTT assay relative to control
Format: toxicity, cell-based
Settings: 3t3-l1, 24 h

Structure (SMILES)	Activity
CCCCCCCCCCCCCC(=O)Nc1nc(N)cc(Cl)n1	101.81%
CCCCCCCCCCCCCC(=O)Nc1nc(Cl)cc(N2CCNCC2)n1	20.84%

Test system: Acinetobacter baumannii
Experiment: Antibiofilm activity against Acinetobacter baumannii S1 assessed as inhibition rate of biofilm formation at 100 uM incubated for 18 to 24 hrs by crystal violet staining based assay (reference value: 28.8 +/- 8.21%)
Format: functional
Parameters: scale not given: the % may be the effect or the level left
Settings: time 18-24 hrs

Structure (SMILES)	Activity
CCCCCCCCCCCCCC(=O)Nc1nc(N)cc(Cl)n1	69.9%
CCCCCCCCCCCCCC(=O)Nc1nc(Cl)cc(N2CCNCC2)n1	70.2%

Test system: Acinetobacter baumannii
Experiment: Antibiofilm activity against Acinetobacter baumannii 1913061 assessed as inhibition of biofilm formation incubated for 18 to 24 hrs by crystal violet staining based assay
Format: functional, organism-based
Settings: not given

Structure (SMILES)	IC50
CCCCCCCCCCCCCC(=O)Nc1nc(N)cc(Cl)n1	16.5 µM
CCCCCCCCCCCCCC(=O)Nc1nc(Cl)cc(N2CCNCC2)n1	1.89 µM

Test system: Acinetobacter baumannii
Experiment: Antibiofilm activity against Acinetobacter baumannii assessed as reduction in bacterial motility in agar plates by quorum sensing process at 100 uM incubated for 24 hrs
Format: functional, organism-based
Settings: not given

Structure (SMILES)	Activity
CCCCCCCCCCCCCC(=O)Nc1nc(N)cc(Cl)n1	Active
CCCCCCCCCCCCCC(=O)Nc1nc(Cl)cc(N2CCNCC2)n1	Active

Test system: Acinetobacter baumannii
Experiment: Synergistic antibacterial activity against Acinetobacter baumannii assessed as planktonic growth inhibition incubated for 18 to 24 hrs in the presence of oxacillin by CLSI protocol based checkerboard assay
Format: functional
Settings: time 18-24 hrs

Structure (SMILES)	MIC
CCCCCCCCCCCCCC(=O)Nc1nc(N)cc(Cl)n1	128 µg/mL
CCCCCCCCCCCCCC(=O)Nc1nc(Cl)cc(N2CCNCC2)n1	128 µg/mL
